Experimental data published in PMC4373826, “Antiviral Effect of Methylated Flavonol Isorhamnetin against Influenza” (PLoS ONE, 2015).

Test system: influenza A/PR/8/34 (H1N1)
Experiment: In vivo antiviral assay in infected mice
Design: species or system C57BL/6 mice
Experimental: Six-week-old female C57BL/6 mice purchased from KOATECH (Pyeongtaek, South Korea) infected with the PR8 influenza strain (A/PR/8/34, H1N1). After anesthesia, mice were inoculated with 4.25 log10EID50/mL (5 MLD50/mice) in 30 μL sterile PBS via the intranasal route. Two hours post-infection, each group (13 mice) received the following compounds: (1) Tamiflu capsules were dissolved in PBS at a concentration of 10mg/kg and then centrifuged at 1,000rpm/10minutes for removal of the filler. From this solution 200 μL was administered per day orally for 5 days, or (2) flavonoid (Isorhamnetin) was initially dissolved in 0.2% DMSO and then diluted in PBS to a final concentration of 1 mg/kg and less than 0.2% DMSO. This mixture mixed will by vortex and 30 μL of this mixture was administered per day via the intranasal route for 5 days.
One week after infection, the lungs of 3 mice per group were collected for the virology analysis. Lung tissues were excised, homogenized using a homogenizer (Tissue Lyser, Qiagen, Valencia, CA, USA), and centrifuged (2,000 g for 5 min). Ten-fold serial dilutions of the supernatant from the lung homogenate samples were subjected to the virology assays for virus titer determination. Lung homogenates were injected into the allantoic sac of 10-day-old embryonated eggs, which were incubated at 37°C for 48 hr, after which the allantoic fluid was harvested. The virus titer in the allantoic fluid was assessed using the HA assay. The virus titer (EID50/mL) in the fluid was calculated based on the method of Reed and Muench. For the assessments of body weight and survival rate, mice were observed daily for 14 days and monitored for clinical signs.

[1] = infected mice, abstract says oral administration

COc1cc(-c2oc3cc(O)cc(O)c3c(=O)c2O)ccc1O [Isorhamnetin, isorhamnetin]
toxic effect in mice (data not shown): no significant toxic effect
survival rate (infected mice, observed 14 days): 70–80%
decrease in body weight loss [1]: 25%
decrease in lung virus titer [1]: 2 folds
body weight loss (vs PBS control group, 14 days): reduced body weight loss
